{
  "source": "ChEMBL document CHEMBL1201862",
  "about": "“PubChem BioAssay data set” (2004)",
  "key": {"Vero [1]": {"test_system": "Vero", "assay": "cells", "format": "functional, cell-based", "conditions": "Chlorocebus sabaeus"}, "Vero [2]": {"test_system": "Vero", "assay": "cells", "format": "functional", "conditions": "Chlorocebus sabaeus"}, "[3]": {"assay": "reduction of Shn3 3'UTR-driven luciferase in osteoblasts – cell-based, Clone20 osteoblasts, firefly luciferase, cherry-picked, dose response (AID 624132)", "format": "functional"}, "[4]": {"assay": "loss of viability in HepG2 cells – cell-based, CellTiter-Glo, cherry-picked, cytotoxicity control for Shn3 inhibitor project, dose response (AID 624134)", "format": "functional"}, "[5]": {"assay": "non-specific 3'UTR reporter inhibition in Clone20-Shn3RL – cell-based, Renilla luciferase, cherry-picked, counter-screen for Shn3 inhibitor project, dose response (AID 624133)", "format": "functional"}, "HEK293 [6]": {"test_system": "HEK293", "assay": "inhibition of NOD1-driven NF-kB reporter – cell-based, luminescence, uHTS, primary screen (AID 1578)", "format": "functional", "conditions": "Homo sapiens"}, "HEK293 [7]": {"test_system": "HEK293", "assay": "cells", "format": "functional, cell-based", "conditions": "Homo sapiens"}, "HEK293 [8]": {"test_system": "HEK293", "assay": "cells", "format": "functional, cell-based", "conditions": "Homo sapiens", "remark": "listed apart in the source"}, "HEK293 [9]": {"test_system": "HEK293", "assay": "NOD2 signaling inhibitors in MDP-stimulated cells, cell-based, uHTS, luminescence (AID 2001)", "format": "functional", "conditions": "Homo sapiens"}, "HEK293 [10]": {"test_system": "HEK293", "assay": "cells", "format": "functional, cell-based", "conditions": "Homo sapiens", "remark": "listed apart in the source"}, "HEK293 [11]": {"test_system": "HEK293", "assay": "cells", "conditions": "Homo sapiens"}, "[12]": {"target": "Intestinal-type alkaline phosphatase (Mus musculus, UniProt P24822)", "sequence (P24822 whole entry)": "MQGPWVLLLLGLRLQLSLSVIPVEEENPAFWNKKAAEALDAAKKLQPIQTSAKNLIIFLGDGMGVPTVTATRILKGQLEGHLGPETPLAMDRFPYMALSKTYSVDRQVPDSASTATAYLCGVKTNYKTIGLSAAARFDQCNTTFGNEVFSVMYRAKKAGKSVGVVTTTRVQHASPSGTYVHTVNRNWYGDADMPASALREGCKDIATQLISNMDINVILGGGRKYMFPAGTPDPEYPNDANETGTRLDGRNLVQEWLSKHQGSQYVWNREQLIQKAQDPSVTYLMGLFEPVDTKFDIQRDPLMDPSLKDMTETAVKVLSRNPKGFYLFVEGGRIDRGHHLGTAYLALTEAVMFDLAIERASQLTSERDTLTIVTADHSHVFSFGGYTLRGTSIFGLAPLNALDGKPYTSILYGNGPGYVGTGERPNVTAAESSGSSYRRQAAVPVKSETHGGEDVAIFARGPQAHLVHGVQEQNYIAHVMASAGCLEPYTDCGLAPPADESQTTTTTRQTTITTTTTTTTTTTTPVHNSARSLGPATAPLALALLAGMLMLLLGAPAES", "assay": "PubChem AID 488874", "format": "functional"}, "[13]": {"target": "T1, Intestinal-type alkaline phosphatase (Homo sapiens, UniProt P09923)", "T1 sequence (P09923 whole entry)": "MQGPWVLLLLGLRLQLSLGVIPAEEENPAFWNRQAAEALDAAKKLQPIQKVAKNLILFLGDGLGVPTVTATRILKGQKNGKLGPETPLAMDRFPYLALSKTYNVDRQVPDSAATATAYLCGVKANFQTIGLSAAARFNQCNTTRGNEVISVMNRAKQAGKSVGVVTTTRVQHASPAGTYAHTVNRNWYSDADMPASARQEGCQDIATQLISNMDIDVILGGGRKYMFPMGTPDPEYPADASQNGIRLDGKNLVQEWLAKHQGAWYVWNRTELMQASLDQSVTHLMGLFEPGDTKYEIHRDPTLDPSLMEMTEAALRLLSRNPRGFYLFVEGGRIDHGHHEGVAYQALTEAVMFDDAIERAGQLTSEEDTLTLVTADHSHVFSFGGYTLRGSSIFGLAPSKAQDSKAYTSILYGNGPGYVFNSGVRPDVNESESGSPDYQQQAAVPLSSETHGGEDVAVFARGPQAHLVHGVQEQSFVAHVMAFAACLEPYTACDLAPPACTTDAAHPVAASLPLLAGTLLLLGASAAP", "assay": "human intestinal alkaline phosphatase activators, dose response, biochemical, luminescence, uHTS hits (AID 463120)", "format": "functional"}, "[14]": {"target": "T1, Intestinal-type alkaline phosphatase", "assay": "activation of human intestinal alkaline phosphatase – biochemical, luminescent, uHTS hits, set 2, dose response (AID 488817);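 also: potency of activators that raise enzyme activity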", "format": "functional"}, "[15]": {"target": "T2, Alkaline phosphatase, tissue-nonspecific isozyme (Homo sapiens, UniProt P05186)", "T2 sequence (P05186 whole entry)": "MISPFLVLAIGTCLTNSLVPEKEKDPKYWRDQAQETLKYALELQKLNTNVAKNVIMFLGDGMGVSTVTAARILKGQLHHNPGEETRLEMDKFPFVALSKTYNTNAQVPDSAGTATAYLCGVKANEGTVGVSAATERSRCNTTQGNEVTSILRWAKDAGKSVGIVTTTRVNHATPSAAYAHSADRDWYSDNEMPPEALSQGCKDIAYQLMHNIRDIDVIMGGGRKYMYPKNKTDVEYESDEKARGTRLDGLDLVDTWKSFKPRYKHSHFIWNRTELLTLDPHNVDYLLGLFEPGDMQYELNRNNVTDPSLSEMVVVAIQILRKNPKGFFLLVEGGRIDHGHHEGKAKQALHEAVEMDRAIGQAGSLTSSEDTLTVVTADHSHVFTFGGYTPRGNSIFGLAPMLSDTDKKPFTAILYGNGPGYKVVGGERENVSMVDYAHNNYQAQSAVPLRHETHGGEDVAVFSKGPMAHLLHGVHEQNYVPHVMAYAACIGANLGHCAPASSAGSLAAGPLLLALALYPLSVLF", "assay": "activation of tissue-nonspecific alkaline phosphatase – biochemical, TNAP isozyme, human IAP uHTS hits, selectivity assay for human IAP activator project, dose response (AID 488886);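 also: potency of compounds raising TNAP activity as a selectivity check on IAP activators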", "format": "functional"}, "[16]": {"assay": "Luminescence Cell-Based Dose Retest to Confirm Inhibitors of Cancer Stem Cells. [Related pubchem assays (depositor defined):AID2717, AID2721]", "format": "functional", "conditions": "Homo sapiens"}, "[17]": {"assay": "viability loss of HMLE_sh_eGFP cells – cell-based, luminescence, counter-screen for HMLE_sh_ECad selective toxicity project, dose response (AID 463074);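 also: HMLE human mammary epithelial cells expressing control shRNA against eGFP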", "format": "functional, Homo sapiens"}, "Cytochrome P450 1A2": {"target": "T3, Cytochrome P450 1A2 (Homo sapiens, UniProt P05177)", "T3 sequence (P05177 whole entry)": "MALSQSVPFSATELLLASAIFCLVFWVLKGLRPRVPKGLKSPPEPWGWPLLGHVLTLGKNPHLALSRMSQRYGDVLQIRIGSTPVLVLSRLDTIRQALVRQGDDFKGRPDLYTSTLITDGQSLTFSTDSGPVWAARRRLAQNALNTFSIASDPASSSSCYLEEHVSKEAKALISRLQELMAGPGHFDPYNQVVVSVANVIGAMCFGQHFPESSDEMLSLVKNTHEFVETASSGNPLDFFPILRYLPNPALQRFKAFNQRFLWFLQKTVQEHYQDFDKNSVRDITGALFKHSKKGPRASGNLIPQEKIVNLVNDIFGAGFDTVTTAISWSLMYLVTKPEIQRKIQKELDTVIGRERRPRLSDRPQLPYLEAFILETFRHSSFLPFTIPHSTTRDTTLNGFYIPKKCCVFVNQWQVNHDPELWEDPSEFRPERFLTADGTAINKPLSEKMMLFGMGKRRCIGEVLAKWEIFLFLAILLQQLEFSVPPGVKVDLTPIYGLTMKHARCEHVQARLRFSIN"}, "Cytochrome P450 2C9": {"target": "Cytochrome P450 2C9 (Homo sapiens, UniProt P11712)", "sequence (P11712 whole entry)": "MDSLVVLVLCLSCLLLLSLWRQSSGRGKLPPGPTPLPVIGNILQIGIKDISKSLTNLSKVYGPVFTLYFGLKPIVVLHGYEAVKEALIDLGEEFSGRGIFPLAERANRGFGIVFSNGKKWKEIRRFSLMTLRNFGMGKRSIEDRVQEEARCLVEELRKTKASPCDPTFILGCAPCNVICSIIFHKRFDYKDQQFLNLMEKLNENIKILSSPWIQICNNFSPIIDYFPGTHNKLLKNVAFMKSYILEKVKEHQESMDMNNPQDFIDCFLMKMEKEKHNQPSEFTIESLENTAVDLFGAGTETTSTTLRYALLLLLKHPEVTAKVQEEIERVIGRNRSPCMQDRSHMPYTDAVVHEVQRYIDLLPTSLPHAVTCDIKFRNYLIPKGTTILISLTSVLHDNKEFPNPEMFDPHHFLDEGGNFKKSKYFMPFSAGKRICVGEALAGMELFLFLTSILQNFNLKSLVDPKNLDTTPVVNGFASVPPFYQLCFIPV"}, "[18]": {"target": "G-protein coupled receptor 55 (Homo sapiens, UniProt Q9Y2T6)", "sequence (Q9Y2T6 whole entry)": "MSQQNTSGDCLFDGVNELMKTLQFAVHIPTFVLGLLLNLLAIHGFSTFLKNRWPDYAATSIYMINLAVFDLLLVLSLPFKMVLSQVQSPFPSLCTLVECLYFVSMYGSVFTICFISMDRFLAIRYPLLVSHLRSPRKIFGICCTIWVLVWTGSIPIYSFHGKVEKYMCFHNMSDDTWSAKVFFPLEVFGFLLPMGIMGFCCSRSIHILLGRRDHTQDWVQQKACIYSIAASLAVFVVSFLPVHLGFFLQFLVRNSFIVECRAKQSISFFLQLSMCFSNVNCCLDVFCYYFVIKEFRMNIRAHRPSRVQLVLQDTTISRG", "assay": "blockers of GPR55 signalling, imaged – imaging, image-based, counter-screen for GPR35 antagonist project, SAR follow-up (AID 2397)", "format": "functional"}, "[19]": {"target": "T4, Replicative DNA helicase DnaB (Mycobacterium tuberculosis, UniProt P9WMR3)", "T4 sequence (P9WMR3 whole entry)": "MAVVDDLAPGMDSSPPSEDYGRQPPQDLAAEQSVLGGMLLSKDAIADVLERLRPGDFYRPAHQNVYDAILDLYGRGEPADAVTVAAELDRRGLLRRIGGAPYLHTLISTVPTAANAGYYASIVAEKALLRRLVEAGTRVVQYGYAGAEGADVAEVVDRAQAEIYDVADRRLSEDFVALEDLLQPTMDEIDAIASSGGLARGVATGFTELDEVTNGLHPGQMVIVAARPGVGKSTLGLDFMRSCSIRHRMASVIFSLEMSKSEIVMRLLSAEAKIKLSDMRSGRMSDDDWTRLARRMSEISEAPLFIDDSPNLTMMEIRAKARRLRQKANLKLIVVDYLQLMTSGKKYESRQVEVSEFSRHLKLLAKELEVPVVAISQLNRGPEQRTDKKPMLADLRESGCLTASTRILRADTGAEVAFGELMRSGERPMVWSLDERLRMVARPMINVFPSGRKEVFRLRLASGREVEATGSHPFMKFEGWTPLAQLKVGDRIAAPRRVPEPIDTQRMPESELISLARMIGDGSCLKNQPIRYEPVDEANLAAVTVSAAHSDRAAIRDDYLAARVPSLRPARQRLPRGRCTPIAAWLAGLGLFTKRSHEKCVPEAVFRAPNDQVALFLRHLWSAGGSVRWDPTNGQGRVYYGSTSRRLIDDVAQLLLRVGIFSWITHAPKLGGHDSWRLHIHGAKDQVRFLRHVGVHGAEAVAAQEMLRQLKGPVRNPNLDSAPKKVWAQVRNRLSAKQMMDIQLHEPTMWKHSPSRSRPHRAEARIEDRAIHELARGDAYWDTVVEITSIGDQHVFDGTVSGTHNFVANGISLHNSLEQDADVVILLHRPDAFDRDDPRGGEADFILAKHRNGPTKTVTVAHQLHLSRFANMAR", "assay": "DnaB intein splicing inhibitors, dose response, biochemical, cell-free fluorescence (AID 449749)", "format": "functional"}, "Protein RecA": {"target": "T5, Protein RecA (Mycobacterium tuberculosis, UniProt P9WHJ3)", "T5 sequence (P9WHJ3 whole entry)": "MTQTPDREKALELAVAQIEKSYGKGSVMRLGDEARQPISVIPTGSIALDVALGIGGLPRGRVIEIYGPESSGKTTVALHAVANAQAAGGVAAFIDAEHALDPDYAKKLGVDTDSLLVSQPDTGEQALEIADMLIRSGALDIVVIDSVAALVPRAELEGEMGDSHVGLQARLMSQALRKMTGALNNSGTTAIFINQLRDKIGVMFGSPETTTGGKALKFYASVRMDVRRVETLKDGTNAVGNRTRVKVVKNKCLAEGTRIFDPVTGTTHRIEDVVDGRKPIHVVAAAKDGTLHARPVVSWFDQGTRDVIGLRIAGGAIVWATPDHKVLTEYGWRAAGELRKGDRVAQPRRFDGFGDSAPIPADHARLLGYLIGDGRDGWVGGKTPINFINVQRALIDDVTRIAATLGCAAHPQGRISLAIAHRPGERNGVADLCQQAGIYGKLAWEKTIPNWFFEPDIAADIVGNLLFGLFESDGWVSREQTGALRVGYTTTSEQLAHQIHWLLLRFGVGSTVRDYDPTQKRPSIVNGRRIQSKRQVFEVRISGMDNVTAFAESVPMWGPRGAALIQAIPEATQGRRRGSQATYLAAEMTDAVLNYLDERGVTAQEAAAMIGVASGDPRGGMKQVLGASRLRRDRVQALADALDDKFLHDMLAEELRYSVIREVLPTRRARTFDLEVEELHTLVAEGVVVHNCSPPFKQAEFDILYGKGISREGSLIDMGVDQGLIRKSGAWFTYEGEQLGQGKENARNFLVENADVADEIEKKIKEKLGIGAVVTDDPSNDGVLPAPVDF", "assay": "Fluorescence Cell-Free Homogeneous Dose Retest to Identify Inhibitors of RecA-Intein Splicing Activity. [Related pubchem assays (depositor defined):AID2097, AID2223, AID489010, AID492950]", "format": "functional"}},
  "note": "Active and inactive are the calls of the source.",
  "data": [
    {"smiles": "CCCCn1c(-c2nonc2NC(=O)c2ccccc2Cl)nc2ccccc21", "values": [
      {"measurement": "IC50", "setting": "Vero [1]", "result": "0.73 µM (active)"},
      {"measurement": "CC50", "setting": "Vero [2]", "result": "11.8 µM (active)"},
      {"measurement": "AC50", "setting": "[3]", "result": "1.39 µM (active)"},
      {"measurement": "AC50", "setting": "[4]", "result": "> 70 µM (inactive)"},
      {"measurement": "AC50", "setting": "[5]", "result": "1.11 µM (active)"}
    ]},
    {"smiles": "Cc1ccc(CSc2nc(O)c(C#N)c(-c3ccccc3)n2)cc1", "values": [
      {"measurement": "EC50", "setting": "HEK293 [6]", "result": "9.39 µM (active)"},
      {"measurement": "IC50", "setting": "HEK293 [7]", "result": "> 20 µM (inactive)"},
      {"measurement": "IC50", "setting": "HEK293 [8]", "result": "> 20 µM (inactive)"},
      {"measurement": "IC50", "setting": "HEK293 [9]", "result": "12.9 µM (inactive)"},
      {"measurement": "IC50", "setting": "HEK293 [10]", "result": "> 20 µM (inactive)"},
      {"measurement": "IC50", "setting": "HEK293 [11]", "result": "> 20 µM (inactive)"}
    ]},
    {"smiles": "Cc1ccsc1C(=O)NNC(=S)NC1CCCCC1", "values": [
      {"measurement": "IC50", "setting": "[12]", "result": "56.7 µM (active)"},
      {"measurement": "EC50", "setting": "[13]", "result": "10.3 µM (active)"},
      {"measurement": "EC50", "setting": "[14]", "result": "15 µM (active)"},
      {"measurement": "EC50", "setting": "[15]", "result": "13.9 µM (active)"}
    ]},
    {"smiles": "C=CCc1cc(Cl)ccc1OCCOCCNC(C)CC", "note": "(configuration not stated)", "values": [
      {"measurement": "AC50", "setting": "[16]", "result": "21.5 µM (active)"},
      {"measurement": "AC50", "setting": "[17]", "result": "34.5 µM (active)"}
    ]},
    {"smiles": "C=C[C@H]1CN2CC[C@@H]1C[C@H]2[C@@H](O)c1ccnc2ccc(OC)cc12.Cl.O", "values": [
      {"measurement": "AC50", "setting": "Cytochrome P450 1A2", "result": "inactive"},
      {"measurement": "AC50", "setting": "Cytochrome P450 2C9", "result": "inactive"}
    ]},
    {"smiles": "O=C(CCCN1C(=O)/C(=C\\c2ccccc2)SC1=S)Nc1ccc(O)cc1", "values": [
      {"measurement": "IC50", "setting": "[18]", "result": "> 32 µM (inactive)"},
      {"measurement": "AC50", "setting": "[19]", "result": "39 µM (active)"},
      {"measurement": "EC50", "setting": "Protein RecA", "result": "27.8 µM (active)"}
    ]}
  ]
}
